# Test results: patent US5646130A, “Low molecular weight sulfated polysaccharides and uses thereof” (priority 1995, dated 1997)
# What was measured:
# white blood cells = assay: Cyclophosphamide immunosuppression in albino mice; assay type: in vivo; settings: cyclophosphamide alone
# From the text: These compounds provided herein can also be used for enhancing cellular and humoral immunological activities. In particular, these compositions and compounds prevent or reduce the immunosuppressive side-effects associated with the administration of alkylating agents, such as cyclophosphamide, for treatment of certain cancers.
# hyperlipoproteinemia = assay: Anti-hyperlipoproteinic activity in rats; assay type: in vivo, rat; settings: 300 mg/Kg PO
# From the text: The pharmacological activity increased with oral dose levels.
# [1] = tested on: preformed rabbit blood clot; assay: Ex vivo thrombolysis of preformed rabbit blood clot; settings: 335 U/ml
# Description: A rabbit arterial blood clot [1 ml] was preformed at 37° C., for 60 min. The clot was incubated in vitro with the drug (0.1 ml, 6 groups) in the clot forming tube at 37° C. for 60 min. At the end of the incubation, the clot was removed and its wet weight determined. It was then dried overnight and its dry weight was determined.
# [2] = tested on: fibrinolysis (euglobulin lysis); assay: Euglobulin lysis time in rabbits; assay type: in vivo, rabbit; settings: iv 333 U/Kg
# From the text: ELT:englobulin (euglobulin) lysis time; a measurement of in vivo plasmin
# [3] = tested on: fibrin degradation protein (FDP); assay: Fibrinolysis activity in rabbits (FDP, fibrinogen); assay type: in vivo, rabbit; settings: iv 333 U/Kg
# thrombus formation = assay: Comparison of (M9 G)2 and heparin, thrombosis assay, Experiment 2; assay type: in vivo, rabbit; settings: 83 u/kg
# Description: Rabbits were anesthetized and surgically instrumented using an established method in which the right carotid artery was connected via a polyethylene tube to the left external […]. A 15 cm [#4] surgical wire was left in the polyethylene tubing for thrombus formation. The animals were then treated with saline or drug intravenously for 10 minutes and the arterial-venous shunt was connected to allow blood flow for 15 minutes. The wire was then retrieved and weighed to determine the thrombus weight.
# [4] = tested on: rabbit blood clot formation; assay: Ex vivo anti-thrombotic activity in treated rabbits (clot wet weight); settings: 83 u/kg
# Description: Blood [1 ml] was removed from the carotid artery of treated animals and quickly injected into clot formation tubes. […] The wet weight of the clot was determined. The clot was dried at 60° C. overnight, and dry weight was determined.
molecule,measurement,setting,value
O=P1(N(CCCl)CCCl)NCCCO1 (centres unmarked) [cyclophosphamide],White blood cell counts,white blood cells,close to zero
CCOC(=O)C(C)(C)Oc1ccc(Cl)cc1 [clofibrate],MDA,hyperlipoproteinemia,1.2 mmol/L
same,PTC (percent inhibition of total cholesterol),hyperlipoproteinemia,53%
same,TC,hyperlipoproteinemia,4.0 mmol/L
same,TG,hyperlipoproteinemia,0.4 mmol/L
heparin,% Dissolution,[1],4.7 ± 8.5%
same,Clot dry weight,[1],14.1 ± 3.2
same,Clot wet weight,[1],56 ± 9
same,"ELT time, 15 min post",[2],124 min
same,"ELT time, 60 min post",[2],197 min
same,"FDP, 15 min post",[3],18 ± 9 mg/L
same,"FDP, 60 min post",[3],6 ± 6. mg/L
same,"Wet weight inhibition, 15 min",thrombus formation,97
same,"Wet weight inhibition, 60 min",thrombus formation,20
same,"Wet weight inhibition, 120 min",thrombus formation,0
same,"Clot wet weight, 15 min after",[4],2.0 ± 4.5 mg
same,"Clot wet weight, 60 min after",[4],51 ± 23 mg
